{"source": "patent US7273614B2", "about": "(priority 1993, dated 2007)", "key": {"HIV-1LAI [1]": {"system": "HIV-1LAI", "settings": "Wild et al. 1992; cited from earlier work"}, "HIV-1LAI [2]": {"system": "HIV-1LAI", "experiment": "Cell free virus infection assay (CEM CD4+ cells, reverse transcriptase readout)", "assay_type": "cell-based", "settings": "FIG. 1 legend", "method": "(§1) Synthetic peptides were incubated at 37° C. with either 247 TCID50 (for experiment depicted in FIG. 2), or 62 TCID50 (for experiment depicted in FIG. 3) units of HIV-1LAI virus or 25 TCID50 units of HIV-2NIHZ and CEM CD4+ cells at peptide concentrations of 0, 0.04, 0.4, 4.0, and 40 μg/ml for 7 days. The resulting reverse transcriptase (RT) activity in counts per minute was determined using the assay described, below, in Section 6.1.5. See, Reed, L. J. et al., 1938, Am. J. Hyg. 27: 493-497 for an explanation of TCID50 calculations.\n(§2) The micro-reverse transcriptase (RT) assay was adapted from Goff et al. (Goff, S. et al., 1981, J. Virol. 38:239-248) and Willey et al. (Willey, R. et al., 1988, J. Virol. 62:139-147). Supernatants from virus/cell cultures are adjusted to 1% Triton-X100. A 10 μl sample of supernatant was added to 50 μl of RT cocktail in a 96-well U-bottom microtitre plate and the samples incubated at 37° C. for 90 min. The RT cocktail contained 75 mM KCl, 2 mM dithiothreitol, 5 mM MgCl2, 5 μg/ml poly A (Pharmacia, cat. No. 27-4110-01), 0.25 units/ml oligo dT (Pharmacia, cat. No. 27-7858-01), 0.05% NP40, 50 mM Tris-HCl, pH 7.8, 0.5 μM non-radioactive dTTP, and 10 μCi/ml ^32P-dTTP (Amersham, cat. No. PB.10167). […]"}, "[3]": {"molecular_target": "viral gp41 of HIV-1 (HIV-1IIIB) (HIV-1 IIIB) (UniProt P03377)", "experiment": "cell-based or functional assay"}, "Fab-d": {"system": "Fab-d", "experiment": "ELISA analysis of DP178 binding to the leucine zipper motif of gp41 (Fab-d ELISA)", "set-up": "species or system human", "settings": "FIG. 10", "description": "Each well was washed three times with distilled water then blocked with 3% bovine serum albumin (BSA) for 2 hours. After blocking, peptides with 0.5% BSA in TBST (40 mM Tris-HCl pH7.5, 150 mM NaCl, 0.05% Tween 20) were added to the ELISA plates and incubated at room temperature for 1 hour. After washing three times with TBST, Fab-d was added at a concentration of 10 ng/ml with 0.5% BSA in TBST. The plates were washed three times with TBST after incubation at room temperature for 1 hour. Horse radish peroxidase (HRP) conjugated goat antihuman Fab antiserum at a 2000 fold dilution in TBST with 0.5% BSA was added to each well and incubated at room temperature for 45 minutes. The plates were then washed four times with TBST. The peroxidase substrate o-phenylene diamine (2.5 mg/ml) and 0.15% H2O2 were added to develop the color. The reaction was stopped with an equal volume of 4.5 N H2SO4 after incubation at room temperature for 10 minutes. The optical density of the stopped reaction mixture was measured with a micro plate reader (Molecular Design) at 490 nm."}, "HIV-2": {"system": "HIV-2", "experiment": "Cell fusion assay: HIV-2 mediated syncytia formation", "assay_type": "cell-based", "settings": "failed to block at highest concentration; FIG. 5", "description": "Approximately 7×10^4 Molt cells were incubated with 1×10^4 CEM cells chronically infected with the HIV-1LAI virus in 96-well plates (one-half area cluster plates; Costar, Cambridge, Mass.) in a final volume of 100 μl culture medium as previously described (Matthews, T. J. et al., 1987, Proc. Natl. Acad. Sci. USA 84: 5424-5428). Peptide inhibitors were added in a volume of 10 μl and the cell mixtures were incubated for 24 hr. at 37° C. At that time, multinucleated giant cells were estimated by microscopic examination at a 40× magnification which allowed visualization of the entire well in a single field."}, "HIV-2NIHZ": {"system": "HIV-2NIHZ", "experiment": "Cell free virus infection assay (CEM CD4+ cells, reverse transcriptase readout)", "assay_type": "cell-based", "method": "as §1, §2"}, "HIV-1IIIB": {"system": "HIV-1IIIB", "assay_type": "cell-based", "settings": "10 nM peptide", "method": "CEM cells (7×10^4) were incubated with HIV-1IIIB chronically infected CEM cells (10^4) in 96-well flat-bottomed half-area plates (Costar) in 100 μl culture medium. Peptide and fusion proteins at various concentrations in 10 μl culture medium were incubated with the cell mixtures at 37° C. for 24 hours. Multinucleated syncytia were estimated with microscopic examination."}, "HIV-1/IIIb": {"system": "HIV-1/IIIb", "experiment": "Anti-HIV assays of DP107 and DP178 truncations and mutations", "assay_type": "cell-based", "settings": "FIGS. 49, 50", "source_text": "Anti-HIV assays: The antiviral assays performed were as those described, above, in Section 6.1. Assays utilized HIV-1/IIIb and/or HIV-2 NIHZ isolates. Purified peptides were used, unless otherwise noted in FIGS. 49A-L."}, "CEM cells": {"system": "CEM cells", "experiment": "Cell proliferation and toxicity assay", "assay_type": "cell-based", "method": "Cell proliferation and toxicity assay: Approximately 3.8×10^5 CEM cells for each peptide concentration were incubated for 3 days at 37° C. in T25 flasks. Peptides tested were DP178 (SEQ ID:1) and DP-116 (SEQ ID:9), as described in FIG. 1. Peptides were synthesized as described, above, in Section 6.1. The concentrations of each peptide used were 0, 2.5, 10, and 40 μg/ml. Cell counts were taken at incubation times of 0, 24, 48, and 72 hours."}}, "note": "“Also recorded” adds a separate entry of the source. Where two headings read alike, the source gives them in different places. Peptide text beside a SMILES is read from it.", "data": [{"compound": "CC[C@H](C)[C@H](NC(=O)[C@H](CCCNC(=N)N)NC(=O)[C@H](C)NC(=O)[C@H](CCC(N)=O)NC(=O)[C@H](CC(C)C)NC(C)=O)C(=O)N[C@@H](CC(C)C)C(=O)N[C@@H](C)C(=O)N[C@H](C(=O)N[C@@H](CCC(=O)O)C(=O)N[C@@H](CCCNC(=N)N)C(=O)N[C@@H](Cc1ccc(O)cc1)C(=O)N[C@@H](CC(C)C)C(=O)N[C@@H](CCCCN)C(=O)N[C@@H](CC(=O)O)C(=O)N[C@@H](CCC(N)=O)C(=O)N[C@@H](CCC(N)=O)C(=O)N[C@@H](CCC(N)=O)C(N)=O)C(C)C", "note": "[DP-116] (Ac-LQARILAVERYLKDQQQ-NH2)", "values": [{"measurement": "activity in cell-free HIV-1 infection assay, previously shown (in words)", "setting": "HIV-1LAI [1]", "result": "inactive; also recorded: ineffective as a HIV inhibitor"}, {"measurement": "inhibition of HIV-1 cell free virus infection (in words)", "setting": "HIV-1LAI [2]", "result": "negative for inhibition of HIV-1 infection"}]}, {"compound": "DP107 (SEQ ID NO: 89), synthetic peptide corresponding to amino acids 558 to 595 of HIV-1LAI gp41", "values": [{"measurement": "Cell fusion (IC90)", "setting": "[3]", "result": 1000, "unit": "nM"}, {"measurement": "HIV infectivity (IC90)", "setting": "[3]", "result": 1000, "unit": "nM"}]}, {"compound": "DP178 (SEQ ID NO:1), synthetic peptide corresponding to amino acids 638 to 673 of HIV-1LAI gp41", "values": [{"measurement": "Cell fusion (IC90)", "setting": "[3]", "result": 1, "unit": "nM"}, {"measurement": "HIV infectivity (IC90)", "setting": "[3]", "result": 80, "unit": "nM"}]}, {"compound": "Enfuvirtide", "values": [{"measurement": "concentration affording complete protection against syncytia formation (lowest concentration tested)", "setting": "HIV-1; HIV-1LAI, FIG. 4", "result": "≤ 12.5", "unit": "ng/mL"}, {"measurement": "concentration affording complete protection against syncytia formation (lowest concentration tested)", "setting": "HIV-1; HIV-1MN, HIV-1RF, HIV-1SF2, FIG. 4", "result": "≤ 100", "unit": "ng/mL"}, {"measurement": "concentration completely blocking virus induced syncytia formation (lowest effective inhibitory concentration)", "setting": "HIV-1; HIV-1 mediated cell-cell fusion", "result": "1 to 10", "unit": "ng/mL"}, {"measurement": "selectivity as inhibitor of HIV-1-mediated over HIV-2-mediated cell fusion", "setting": "HIV-1; HIV-1 vs HIV-2", "result": 4, "unit": "log"}, {"measurement": "peptide concentration blocking HIV-1-mediated syncytia formation", "setting": "HIV-1; HIV-1 vs HIV-2 comparison, FIG. 5", "result": "below 1 ng/ml"}, {"measurement": "Fab-d binding (in words)", "setting": "Fab-d", "result": "failed to bind"}, {"measurement": "peptide concentration blocking HIV-2 mediated syncytia formation", "setting": "HIV-2", "result": "> 10", "unit": "µg/mL"}, {"measurement": "IC50 for HIV-2NIHZ (in words)", "setting": "HIV-2NIHZ; 25 TCID50 HIV-2NIHZ, CEM cells, 7 days, FIG. 3", "result": "much higher IC50"}, {"measurement": "potency as HIV-1 inhibitor relative to HIV-2 inhibitor", "setting": "HIV-2NIHZ; HIV-1LAI vs HIV-2NIHZ cell-free infection", "result": "two logs more potent"}, {"measurement": "syncytia in the presence of peptide (in words)", "setting": "HIV-1IIIB", "result": "no observable syncytia"}]}, {"compound": "H-YTNTIYTLLEESQNQQEKNEQELLELDKWASLWNWF-OH [DP-185]", "values": [{"measurement": "HIV-1-mediated syncytia formation (in words)", "setting": "HIV-1", "result": "block HIV-1-mediated syncytia formation"}, {"measurement": "concentration with inhibitory activity on HIV-1-induced syncytia formation", "setting": "HIV-1; lowest concentration tested, FIG. 4", "result": "≤ 312.5", "unit": "ng/mL"}]}, {"compound": "M41, maltose binding protein fusion with the extracellular domain of gp41 (540-686) (from UniProt P03377 540-686)", "values": [{"measurement": "Cell fusion (IC90)", "setting": "[3]", "result": "> 50000", "unit": "nM"}, {"measurement": "HIV infectivity (IC90)", "setting": "[3]", "result": "> 16000", "unit": "nM"}]}, {"compound": "T-235: SEQ ID NO. 162; DP178 truncation/mutation peptide (RMKQLEDKVEELLSKLELDKWASLWNWF)", "values": [{"measurement": "anti-HIV antiviral activity (in words)", "setting": "HIV-1/IIIb", "result": "high level of antiviral activity"}]}, {"compound": "T-377: SEQ ID NO. 167; DP178 truncation/mutation peptide (CLELDKWASLANWFC)", "values": [{"measurement": "anti-HIV antiviral activity (in words)", "setting": "HIV-1/IIIb", "result": "high level of antiviral activity"}]}, {"compound": "T-378: SEQ ID NO. 168; DP178 truncation/mutation peptide (CLELDKWASLWNFFC)", "values": [{"measurement": "anti-HIV antiviral activity (in words)", "setting": "HIV-1/IIIb", "result": "high level of antiviral activity"}]}, {"compound": "T-381: SEQ ID NO. 164; DP178 truncation/mutation peptide (RMKQLEDKVEELLSKNYHLENELELDKWASLWNWF)", "values": [{"measurement": "anti-HIV antiviral activity (in words)", "setting": "HIV-1/IIIb", "result": "high level of antiviral activity"}]}, {"compound": "T-590: SEQ ID NO. 167; DP178 truncation/mutation peptide (CLELDKWASLANWFC)", "values": [{"measurement": "anti-HIV antiviral activity (in words)", "setting": "HIV-1/IIIb", "result": "high level of antiviral activity"}]}, {"compound": "T-591: SEQ ID NO. 168; DP178 truncation/mutation peptide (CLELDKWASLWNFFC)", "values": [{"measurement": "anti-HIV antiviral activity (in words)", "setting": "HIV-1/IIIb", "result": "high level of antiviral activity"}]}, {"compound": "T-611: SEQ ID NO. 175; DP178 truncation/mutation peptide (LKLDKWASLWNWF)", "values": [{"measurement": "anti-HIV antiviral activity (in words)", "setting": "HIV-1/IIIb", "result": "high level of antiviral activity"}]}, {"compound": "T-677: SEQ ID NO. 165; DP178 truncation/mutation peptide (FWNWLSAWKDLELYPGSLELDKWASLWNWF)", "values": [{"measurement": "anti-HIV antiviral activity (in words)", "setting": "HIV-1/IIIb", "result": "high level of antiviral activity"}]}, {"compound": "enfuvirtide", "values": [{"measurement": "non-cytotoxic concentration relative to HIV inhibitory dose", "setting": "CEM cells; 40 μg/ml vs HIV inhibitory dose", "result": "greater than 3 log"}, {"measurement": "cytotoxic effects on cells in culture (in words)", "setting": "CEM cells; up to highest peptide concentration tested, 40 μg/ml, CEM cells, 3 days", "result": "not toxic to cells; also recorded: non-cytotoxic; also recorded: no cytotoxic effects"}]}]}
